Results reported in patent US20220306640A1, “HYDANTOIN DERIVATIVE” (ONO PHARMACEUTICAL CO., LTD., priority 2019, published 2022).
Structures can show the parent of a compound that is named as a salt.

How the values were obtained:
[1] = target: T1, DDR1 phosphorylation in T-47D (ATCC, HTB-133) cells (Homo sapiens, UniProt Q08345); assay: Measurement of DDR1 phosphorylation suppression rate by using T-47D cells (p-DDR1 ELISA); format: cell-based; conditions: collagen Type I 10 μg/ml, p-DDR1 (panTyr) ELISA
T1 construct: host or cells: T-47D
Procedure: Biological Example 2: Measurement of DDR1 Phosphorylation Suppression Rate by Using T-47D (ATCC, HTB-133) cells
T-47D cells should be in culture for at least 7 days before using in the assay.
Cell culture medium: RPMI 1640 (HyClone) containing 10% Heat-FBS (HyClone) was prepared.
Assay medium: RPMI 1640 containing 0.1% BSA (solarbio) was prepared.
Collagen Type I (rat tail) solution: Assay medium containing 200 μg/mL Collagen I, rat tail (Gibco) was prepared.
Cell lysis buffer: a solution containing IX cell lysis buffer (CST) and 1× protease and phosphatase inhibitor cocktail (Thermofisher) was prepared by using ddH2O.
• 1. Collect cells into tubes and centrifuge at 1200 rpm for 5 min, at room temperature. Re-suspend the cells in cell culture medium pre-warmed to room temperature. • 2. Count cells and suspend at a density of 2×10^5/ml of cell culture medium. Plate the cells at 100 μL per well (Corning 3599 96-well plate, 2×10^4 cells per well final), mixing the cells well between each draw of the pipettor. • 3. Put lid on cell plate and place into the incubator at 37° C., 5% CO2 • 4. Culture cell overnight
• 1. Remove the plate from the incubator • 2. Cell medium is replaced with the 90 μL Assay medium.
• 1. Compound plates are pre-titrated using DMSO (10-fold dilution for 6 points) • 2. Dilute test compound using assay medium; Transfer 1 μL compound to other 96 well plate and then add 49 μL assay medium to each well (50 fold dilution). • 3. Add 5 μL the diluted test compound solution to the appropriate wells by pipettor. Compound final concentration is start from […] and DMSO final concentration is 0.1 • 4. Tap the plates gently to mix in compound. Reseal the plate with a lid and place in the incubator again, for 24 h.
• 1. Diluted collagen Type I in assay medium to the 200 μg/ml concentration • 2. Using the pipettor adds 5 μL of 200 μg/mL collagen Type I solution to the cell plate (compound well and High control well, collagen final conc. is 10 μg/ml). Add assay medium buffer to the control wells (low control well) • 3. Reseal the plate with a lid and place in the incubator. Incubate 24 h for collagen type I
• 1. After incubation, add 100 µL per well Cell lysis buffer. • 2. Incubate 30 min on ice, then freezing to −80° C. to get the fully cell lysates. • 3. Transfer cell lysates to new plate • 4. Centrifuge for 30 min (×4000 rpm) at 4° C. Then transfer the supernatant to a new plate.
p-DDR1 (panTyr) ELISA kit (CST) was used in the study. The measurement was carried out according to the attached instruction.
(§1) The inhibition rate (%) in the test compound group was calculated based on the following mathematical formula.
% inhibition=100−100*(assay value of test compound−A)/(B−A) [Math. 2]
A: average value of low control group B: average value of high control group Values of 50% inhibition rate (IC50 values) of the test compound were calculated from the inhibition curve based on the inhibition rate of the test compounds in each concentration.

[2] = target: T2, DDR1 (Homo sapiens, UniProt Q08345); assay: Measurement of DDR1 inhibitory activity (LanthaScreen system, in vitro test); format: binding; conditions: GST-DDR1, Kinase tracer 178
T2 construct: purchased Invitrogen
Procedure: Biological Experiment Example 1: Measurement of an DDR1 Inhibitory Activity (In Vitro Test)
An DDR1 enzyme inhibitory activity was measured by using LanthaScreen (registered trademark) system (Invitrogen) based on the attached instruction. The reagents used are shown below.
Assay buffer: 5× Kinase buffer A (Invitrogen) was diluted 5-fold with ddH2O.
1× Kinase Buffer A: 50 mmol/L HEPES pH 7.5, 10 mmol/L MgCl2, 1 mmol/L EGTA, 0.01% Brij-35.
2×DDR1 Solution: a solution containing […] GST-DDR1 (Invitrogen) was prepared by using Assay buffer.
2× Tracer/antibody solution: a solution containing 20 nmol/L Kinase tracer 178 (Invitorgen) and […] Eu-Anti-GST Antibody (Invitorogen) was prepared by using Assay buffer. Test compound solution: a solution containing a test compound of 2-fold concentration with respect to the final concentration was prepared by 50-fold diluting a DMSO solution of test compound of each concentration with the Assay buffer.
• 1 Add 5 μL 2×DDR1 Solution to proxiplate (PerkinElmer) • 2 Add 5 μL test compound solution to proxiplate • 3 Incubate for 15 min at RT • 4 Add 5 μL 2× Tracer/Antibody solution to all well Incubate 1 h at RT • 6 Read LANCE Eu on Envision (PerkinElmer) (Ex: 320 nm/Em 665 nm & 615 nm)
In the low control group, 5 μL Assay buffer was added instead of 5 μL 2×DDR1 Solution and the final 1% DMSO solution was added instead of test compound solution.
In the high control group, the final 1% DMSO solution was added instead of test compound solution.
as §1
% inhibition=100−100*(assay value of test compound−A)/(B−A) [Math. 1]
A: average value of low control group B: average value of high control group
Values of 50% inhibition rate (IC50 values) of the test compound were calculated from the inhibition curve based on the inhibition rate of the test compounds in each concentration.

T2 sequence (Q08345 19-913): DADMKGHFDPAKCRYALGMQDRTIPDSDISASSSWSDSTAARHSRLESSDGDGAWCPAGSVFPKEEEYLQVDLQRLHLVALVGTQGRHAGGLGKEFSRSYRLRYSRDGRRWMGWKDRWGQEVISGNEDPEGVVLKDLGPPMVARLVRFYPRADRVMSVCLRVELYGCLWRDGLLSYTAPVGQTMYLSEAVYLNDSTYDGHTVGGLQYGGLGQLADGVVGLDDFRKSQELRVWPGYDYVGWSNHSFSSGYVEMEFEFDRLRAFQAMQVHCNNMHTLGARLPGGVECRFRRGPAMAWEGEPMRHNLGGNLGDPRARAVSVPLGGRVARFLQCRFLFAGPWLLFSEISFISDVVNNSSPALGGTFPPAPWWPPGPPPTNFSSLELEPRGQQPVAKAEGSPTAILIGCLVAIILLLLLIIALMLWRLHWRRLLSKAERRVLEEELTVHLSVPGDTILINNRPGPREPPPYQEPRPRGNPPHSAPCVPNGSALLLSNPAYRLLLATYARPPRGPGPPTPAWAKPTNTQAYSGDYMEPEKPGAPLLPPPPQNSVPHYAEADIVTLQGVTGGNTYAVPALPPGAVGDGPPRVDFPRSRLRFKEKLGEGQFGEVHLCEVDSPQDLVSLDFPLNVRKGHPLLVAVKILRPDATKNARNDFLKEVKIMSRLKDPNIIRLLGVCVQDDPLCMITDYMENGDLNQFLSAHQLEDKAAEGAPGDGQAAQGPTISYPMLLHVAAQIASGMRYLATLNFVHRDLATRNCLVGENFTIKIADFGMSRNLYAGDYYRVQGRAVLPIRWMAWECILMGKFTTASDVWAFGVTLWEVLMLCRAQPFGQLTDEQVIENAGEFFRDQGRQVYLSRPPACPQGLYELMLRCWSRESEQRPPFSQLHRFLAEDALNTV
T1 sequence (Q08345 19-913): as above

Compound	IC50 [1]	IC50 [2]
O=C1CN(c2cncc(C(F)(F)F)c2)C(=O)N1[C@H]1CC[C@H](Oc2ncnc3[nH]ccc23)CC1 (stereo in doubt) [Example 3(17), 3-[trans-4-(7H-pyrrolo[2,3-d]pyrimidin-4-yloxy)cyclohexyl]-1-[5-(trifluoromethyl)-3-pyridinyl]-2,4-imidazolidinedione]	9 nM	5 nM
CS(=O)(=O)c1cc(N2CC(=O)N(c3ccc(Oc4cnc5[nH]ncc5c4)cc3)C2=O)cc(C(F)(F)F)c1 [Example 1(28), 1-[3-(methylsulfonyl)-5-(trifluoromethyl)phenyl]-3-[4-(1H-pyrazolo[3,4-b]pyridin-5-yloxy)phenyl]-2,4-imidazolidinedione]	2 nM	2 nM
Nc1ncc(Oc2ccc(N3C(=O)CN(c4cncc(C(F)(F)F)c4)C3=O)cc2)cn1 [Example 1, 3-{4-[(2-amino-5-primidinyl)oxy]phenyl}-1-[5-(trifluoromethyl)-3-pyridinyl]-2,4-imidazolidinedione]	2 nM	3 nM
COc1cc2nccc(Oc3ccc(N4C(=O)CN(c5cncc(C(F)(F)F)c5)C4=O)cc3C3CN(C(=O)OC(C)(C)C)C3)c2cc1OC [Example 2(2), 2-methyl-2-propanyl 3-(2-[(6,7-dimethoxy-4-quinolinyl)oxy]-5-{2,5-dioxo-3-[5-(trifluoromethyl)-3-pyridinyl]-1-imidazolidinyl}phenyl)-1-azetidinecarboxylate]	50 nM	200 nM
CC(C)c1cc(N2C(=O)CN(c3cc(C(F)(F)F)cn(C)c3=O)C2=O)ccc1Oc1ccnc2cc(OCCCS(C)(=O)=O)ccc12 [Example 2(6), 3-[3-isopropyl-4-({7-[3-(methylsulfonyl)propoxy]-4-quinolinyl}oxy)phenyl]-1-[1-methyl-2-oxo-5-(trifluoromethyl)-1,2-dihydro-3-pyridinyl]-2,4-imidazolidinedione]	6 nM	10 nM
COc1ccc2c(O[C@H]3CC[C@H](N4C(=O)CN(c5cncc(C(F)(F)F)c5)C4=O)CC3)ncnc2c1 [Example 2(19), 3-{trans-4-[(7-methoxy-4-quinazolinyl)oxy]cyclohexyl}-1-[5-(trifluoromethyl)-3-pyridinyl]-2,4-imidazolidinedione]	1 nM	3 nM
O=C1CN(c2cc(F)cc(C(F)(F)F)c2)C(=O)N1[C@H]1CC[C@H](Oc2cnc3ccsc3c2)CC1 [Example 2(125), 1-[3-fluoro-5-(trifluoromethyl)phenyl]-3-[trans-4-(thieno[3,2-b]pvridin-6-yloxy)cyclohexyl]-2,4-imidazolidinedione]	5 nM	20 nM
Nc1nccc(Nc2ccc(N3C(=O)CN(c4cccc(OC(F)(F)F)c4)C3=O)cc2Br)c1N [Example 2(163), 3-{3-bromo-4-[(2,3-diamino-4-pyridinyl)amino]phenyl}-1-[3-(trifluoromethoxy)phenyl]-2,4-imidazolidinedione]	6 nM	
CCc1cc(N2C(=O)N(c3cncc(C(F)(F)F)c3)CC2O)ccc1Oc1ccnc2[nH]c(=O)cnc12 (centres unmarked) [Example 5(46), 8-(2-ethyl-4-{5-hydroxy-2-oxo-3-[5-(trifluoromethyl)-3-pyridinyl]-1-imidazolidinyl}phenoxy)pyrido[2,3-b]pyrazin-3(4H)-one]		2 nM
C=Cc1cc(N2C(=O)CN(c3cncc(C(F)(F)F)c3)C2=O)ccc1N1CCCc2cnccc21 [Example 8(1), 3-[4-(3,4-dihydro-1,6-naphthyridin-1(2H)-yl)-3-vinylphenyl]-1-[5-(trifluoromethyl)-3-pyridinyl]-2,4-imidazolidinedione]		80 nM
O=C1CN(c2cncc(C(F)(F)F)c2)C(=O)N1c1ccc(N2CCCc3cnccc32)c(Br)c1 [Example 8, 3-[3-bromo-4-(3,4-dihydro-1,6-naphthyridin-1(2H)-yl)phenyl]-1-[5-(trifluoromethyl)-3-pyridinyl]-2,4-imidazolidinedione]	70 nM	
CC(c1ccnc2[nH]ccc12)N1CCC(N2C(=O)CN(c3cncc(C(F)(F)F)c3)C2=O)CC1 (centres unmarked) [Example 10(1), 3-{1-[1-(1H-pyrrolo[2,3-b]pyridin-4-yl)ethyl]-4-piperidinyl}-1-[5-(trifluoromethyl)-3-pyridinyl]-2,4-imidazolidinedione]	10 nM	
COc1ccc2c(CN3CCC(N4C(=O)CN(c5cncc(C(F)(F)F)c5)C4=O)CC3)ccnc2c1 [Example 10, 3-{1-[(7-methoxy-4-quinolinyl)methyl]-4-piperidinyl}-1-[5-(trifluoromethyl)-3-pyridinyl]-2,4-imidazolidinedione]		60 nM
O=C1CN(c2cncc(C(F)(F)F)c2)C(=O)N1[C@H]1CC[C@H](Oc2cnc3[nH]nc(OCCO)c3c2)CC1 [Example 36(7), 3-(trans-4-{[3-(2-hydroxyethoxy)-1H-pyrazolo[3,4-b]pyridin-5-yl]oxy}cyclohexyl)-1-[5-(trifluoromethyl)-3-pyridinyl]-2,4-imidazolidinedione]	0.1 nM	
CC(C)(O)c1cc2c(OC34CCC(N5C(=O)CN(c6cncc(C(F)(F)F)c6)C5=O)(CC3)C4)ncnc2[nH]1 [Example 39, 3-(4-{[6-(2-hydroxy-2-propanyl)-7H-pyrrolo[2,3-d]pyrimidin-4-yl]oxy}bicyclo[2.2.1]hept-1-yl)-1-[5-(trifluoromethyl)-3-pyridinyl]-2,4-imidazolidinedione trifluoroacetate (1:1)]	10 nM	
O=C1CN(c2cncc(C(F)(F)F)c2)C(=O)N1C12CCC(Oc3ncnc4[nH]cc(Cl)c34)(CC1)C2 [Example 42(2), 3-{4-[(5-chloro-7H-pyrrolo[2,3-d]pyrimidin-4-yl)oxy]bicyclo[2.2.1]hept-1-yl}-1-[5-(trifluoromethyl)-3-pyridinyl]-2,4-imidazolidinedione]	20 nM	
N#Cc1cncc(N2CC(=O)N(C34CCC(Oc5ncnc6[nH]ccc56)(CC3)C4)C2=O)c1 [Example 42(7), 5-{2,4-dioxo-3-[4-(7H-pyrrolo[2,3-d]pyrimidin-4-yloxy)bicyclo[2.2.1]hept-1-yl]-1-imidazolidinyl}nicotinonitrile]	200 nM	
N#Cc1cccc(N2CC(=O)N(C34CCC(Oc5ncnc6[nH]ccc56)(CC3)C4)C2=O)c1 [Example 42(9), 3-{2,4-dioxo-3-[4-(7H-pyrrolo[2,3-d]pyrimidin-4-yloxy)bicyclo[2.2.1]hept-1-yl]-1-imidazolidinyl}benzonitrile]	20 nM	
O=C1CN(c2cncc(C(F)(F)F)c2)C(=O)N1C12CCC(Oc3ccnc4[nH]ncc34)(CC1)C2 [Example 43, 3-[4-(1H-pyrazolo[3,4-b]pyridin-4-yloxy)bicyclo[2.2.1]hept-1-yl]-1-[5-(trifluoromethyl)-3-pyridinyl]-2,4-imidazolidinedione]	6 nM	
